Reference: US10118922B2 (Janssen Pharmaceutica NV, priority 2013, dated 2018)

Experiments:
C57b16 mouse = C57b16 mouse OGTT; assay type: in vivo; details: dosed 30 min prior to glucose PO 3 g/kg
Method: (§1) Male, C57bl/6J Mice were ordered in at 8 weeks of age from Jackson Labs. Individual mice weighed anywhere in the range of 25-30 grams on study day. The mice were fasted, with removal of food occurring at 7 am on the morning of the study. Animals were moved into the room at 10:00 am, to give them time to acclimate. Glucose (insulin syringes) was drawn up either the night before or the morning of the study. Glucose was dosed (IP) at 1.5 g/kg at 7.5 ml/kg (20% glucose straight TEKNOVA, 250 ml sterile bottle w/ catalogue number G0525). Test compounds were kept spinning and were only drawn into the syringes prior to study commencement. Animals were bled via tail snip to determine basal glucose levels prior to dosing of treatments. An Ascensia BREEZE Blood Glucose Monitoring System by Bayer (using unique 10-test disks) was used for determining glucose levels. The bleeds started at approximately 12:45 pm and dosing started, at 1-minute intervals, immediately after. All groups were dosed 30 minutes prior to glucose administration at a dose volume of 10 ml/kg (the dose volume was calculated separately for each individual animal). Thirty minutes after the first dose animals were bled again for a second baseline, or T=0, and immediately dosed with glucose via an i.p. injection. The exact dose volume for glucose was also calculated separately for each individual animal. Glucose measurements were taken at −30 min prior to compound dose, at t=0 (immediately prior to glucose dose), and at 15, 30, 45, 60, 90 min post glucose dose.
(§2) Glucose values were entered into an Excel sheet and graphed in GraphPad Prism. The following were calculated from Prism: Change from −30 to 0 BSLN Glucose, Raw Glucose AUC −30 to 90 min, Delta Glucose AUC −30 to 90 min, Raw Glucose AUC 0 to 90 min, Delta Glucose AUC 0 to 90 min.
The assay design is the same as that described above for the C57b16 mouse IPGTT. The difference is that glucose was dosed PO at 3 g/kg, 7.5 ml/kg of 40% glucose.

[1] = tested on: C57B16 mice on a high fat diet; assay: GPR120 DIO mice OGTT screening; assay type: in vivo, mouse; details: dosed 30 min prior to glucose PO
Method: 18-22 week old, C57B16 mice on a high fat diet (60% HFD) for 12-16 weeks (ave. body weight ˜37-41 g) were fasted for 6 hr, with removal of food occurring at 7 am on the morning of the study. The animals were sorted into treatment groups the day before the study by body weight. Animals outside the bounds of ˜30-50 g were left out of the study. The animals had been handled and shammed a total of 5-8 days (1-3 days immediately prior to the study). Glucose (in 1 mL syringes) was drawn up the morning of the study. Test compounds were kept spinning and were only drawn into 1 ml syringes prior to study commencement. Animals were bled via tail snip to determine basal glucose levels prior to dosing of treatments. An Ascensia BREEZE Blood Glucose Monitoring System by Bayer was used for determining glucose levels.
Animals were moved into the testing room at ˜9-11 am, to yield them time to acclimate. The bleeds and dosing started at approximately 1 pm in 30-second intervals per animal. All groups were dosed 30 minutes prior to glucose administration at a dose volume of 10 ml/kg (the dose volume was calculated separately for each individual animal). Test compounds were administered at one or more of the following dosages: 0.1 mg/kg, 0.3 mg/kg, 1 mg/kg, 3 mg/kg and 10 mg/kg.
Thirty minutes after the first dose (with test compound) animals were bled again for a second baseline, or T=0, and immediately dosed with glucose (20% solution; TEKNOVA, 250 ml sterile bottle w/ catalogue number G0525) via a PO injection. The exact dose volume for glucose was also calculated separately for each individual animal.
Blood glucose was measured at 15, 30, 45, 60, and 90 minutes post-glucose administration via the snipped tail. If an animal reached a value of “HI”, the upper limit of the glucometer (600 mg/dl) was substituted as the blood glucose value and the study was analyzed as normal with no exclusions. If 50% or more of any treatment group reaches a “HI” value at least once, the study was considered invalid and repeated. Glucose values were typed into an EXCEL spreadsheet where they were used to calculate glucose AUC and delta AUC post-compound and post-glucose. The glucose excursion curves and the different versions of the AUC's were graphed in GraphPad Prism 5.
Note: All statistics completed in this study were completed using the statistical software package GraphPad Prism 5. Standard procedures for analyzing data sets from screening GPR120 compounds in DIO mouse OGTT's were as listed here below. In addition to the statistics that were run using GraphPad Prism 5, Microsoft Excel was used to calculate the percent changes in AUC from vehicle groups as detailed below.
Change from −30 to 0 BSLN Glucose, Raw Glucose AUC −30 to 90 min, Delta Glucose AUC −30 to 90 min, Raw Glucose AUC 0 to 90 min, Delta Glucose AUC 0 to 90 min were analyzed using Column Statistics Analysis, with mean values used to calculate % change from the vehicle mean group, as well as mean, SEM and/or % change from vehicle, where appropriate; and using One-Way ANOVA w/ a Tukey Post-Test (Comparing All Pairs of Columns) with each treatment group examined to see if it was statistically significant compared to vehicle (*=P<0.05, **=P<0.01, ***=P<0.001).

C57bl/6J Mice = assay: GPR120 C57bl6 mouse IPGTT; assay type: in vivo; details: 3 mg/kg, dosed 30 min prior to glucose IP 1.5 g/kg
Method: as §1, §2

O=C(O)CCc1cc(F)c(OCc2c(C3CCCC3)nsc2C(F)(F)F)c(F)c1 [Cpd 71, 3-(4-[[3-cyclopentyl-5-(trifluoromethyl)-1,2-thiazol-4-yl]methoxy]-3,5-difluorophenyl)propanoic acid]
C57 OGTT 3 mg/kg (C57b16 mouse): −37 | DIO Lowering Glucose AUC (−30 to 90) @ 10 mg/kg [1]: −0.52 | C57 IPGTT 3 mg/kg (C57bl/6J Mice): −14
